What was measured:
RAW264.7 = assay: Inhibition of LPS-induced nitric oxide production in mouse RAW264.7 cells assessed as nitrite levels in supernatant after 24 hrs by griess assay; assay type: functional, cell-based
Mus musculus [1] = assay: Antiinflammatory activity against carrageenan-induced paw edema in ICR mouse at 50 mg/kg, ip administered 30 mins before carrageenan challenge assessed after 0.5 hrs; assay type: functional; conditions: route intraperitoneal
Mus musculus [2] = assay: Antiinflammatory activity against carrageenan-induced paw edema in ICR mouse at 50 mg/kg, ip administered 30 mins before carrageenan challenge assessed after 1 hr; assay type: functional; conditions: route intraperitoneal
Mus musculus [3] = assay: Antiinflammatory activity against carrageenan-induced paw edema in ICR mouse at 50 mg/kg, ip administered 30 mins before carrageenan challenge assessed after 2 hrs; assay type: functional; conditions: route intraperitoneal
Mus musculus [4] = assay: Antiinflammatory activity against carrageenan-induced paw edema in ICR mouse at 50 mg/kg, ip administered 30 mins before carrageenan challenge assessed after 3 hrs; assay type: functional; conditions: route intraperitoneal
Mus musculus [5] = assay: Antiinflammatory activity against carrageenan-induced paw edema in ICR mouse at 50 mg/kg, ip administered 30 mins before carrageenan challenge assessed after 4 hrs; assay type: functional; conditions: route intraperitoneal
Mus musculus [6] = assay: Antiinflammatory activity against carrageenan-induced paw edema in ICR mouse at 50 mg/kg, ip administered 30 mins before carrageenan challenge assessed after 5 hrs; assay type: functional; conditions: route intraperitoneal
Mus musculus [7] = assay: Antiinflammatory activity against carrageenan-induced paw edema in ICR mouse at 100 mg/kg, ip administered 30 mins before carrageenan challenge assessed after 0.5 hrs; assay type: functional; conditions: route intraperitoneal
Mus musculus [8] = assay: Antiinflammatory activity against carrageenan-induced paw edema in ICR mouse at 100 mg/kg, ip administered 30 mins before carrageenan challenge assessed after 1 hr; assay type: functional; conditions: route intraperitoneal
Mus musculus [9] = assay: Antiinflammatory activity against carrageenan-induced paw edema in ICR mouse at 100 mg/kg, ip administered 30 mins before carrageenan challenge assessed after 2 hrs; assay type: functional; conditions: route intraperitoneal
Mus musculus [10] = assay: Antiinflammatory activity against carrageenan-induced paw edema in ICR mouse at 100 mg/kg, ip administered 30 mins before carrageenan challenge assessed after 3 hrs; assay type: functional; conditions: route intraperitoneal
Mus musculus [11] = assay: Antiinflammatory activity against carrageenan-induced paw edema in ICR mouse at 100 mg/kg, ip administered 30 mins before carrageenan challenge assessed after 4 hrs; assay type: functional; conditions: route intraperitoneal
Mus musculus [12] = assay: Antiinflammatory activity against carrageenan-induced paw edema in ICR mouse at 100 mg/kg, ip administered 30 mins before carrageenan challenge assessed after 5 hrs; assay type: functional; conditions: route intraperitoneal
Mus musculus [13] = assay: Antiinflammatory activity against carrageenan-induced paw edema in ICR mouse at 4 mg/kg, ip administered 30 mins before carrageenan challenge assessed after 0.5 hrs; assay type: functional; conditions: route intraperitoneal
Mus musculus [14] = assay: Antiinflammatory activity against carrageenan-induced paw edema in ICR mouse at 4 mg/kg, ip administered 30 mins before carrageenan challenge assessed after 1 hr; assay type: functional; conditions: route intraperitoneal
Mus musculus [15] = assay: Antiinflammatory activity against carrageenan-induced paw edema in ICR mouse at 4 mg/kg, ip administered 30 mins before carrageenan challenge assessed after 2 hrs; assay type: functional; conditions: route intraperitoneal
Mus musculus [16] = assay: Antiinflammatory activity against carrageenan-induced paw edema in ICR mouse at 4 mg/kg, ip administered 30 mins before carrageenan challenge assessed after 3 hrs; assay type: functional; conditions: route intraperitoneal
Mus musculus [17] = assay: Antiinflammatory activity against carrageenan-induced paw edema in ICR mouse at 4 mg/kg, ip administered 30 mins before carrageenan challenge assessed after 4 hrs; assay type: functional; conditions: route intraperitoneal
Mus musculus [18] = assay: Antiinflammatory activity against carrageenan-induced paw edema in ICR mouse at 4 mg/kg, ip administered 30 mins before carrageenan challenge assessed after 5 hrs; assay type: functional; conditions: route intraperitoneal

| SMILES | Activity (RAW264.7) | Activity (Mus musculus [1]) | Activity (Mus musculus [2]) | Activity (Mus musculus [3]) | Activity (Mus musculus [4]) | Activity (Mus musculus [5]) | Activity (Mus musculus [6]) | Activity (Mus musculus [7]) | Activity (Mus musculus [8]) | Activity (Mus musculus [9]) | Activity (Mus musculus [10]) | Activity (Mus musculus [11]) | Activity (Mus musculus [12]) | Activity (Mus musculus [13]) | Activity (Mus musculus [14]) | Activity (Mus musculus [15]) | Activity (Mus musculus [16]) | Activity (Mus musculus [17]) | Activity (Mus musculus [18]) |
| --- | --- | --- | --- | --- | --- | --- | --- | --- | --- | --- | --- | --- | --- | --- | --- | --- | --- | --- | --- |
| C[C@@]12C[C@H](c3ccoc3)OC(=O)[C@@H]1CC[C@@]1(CO[C@@H]3O[C@H](CO)[C@@H](O)[C@H](O)[C@H]3O)C(=O)C=CC[C@H]12 | Dose-dependent effect | – | – | – | – | – | – | – | – | – | – | – | – | – | – | – | – | – | – |
| C[C@@]12C[C@H](c3ccoc3)OC(=O)[C@@H]1[C@@H](O)C[C@]1(C)[C@H]2[C@@H]2OC(=O)[C@@]1(O)[C@H]1O[C@@H]21 | Dose-dependent effect | – | – | – | – | – | – | – | – | – | – | – | – | – | – | – | – | – | – |
| C[C@@]12[C@H]3CC=C[C@@]1(O[C@@H]1O[C@H](CO)[C@@H](O)[C@H](O)[C@H]1O)C(=O)O[C@@H]2C[C@]1(O)C(=O)O[C@H](c2ccoc2)C[C@@]31C | Dose-dependent effect | – | – | – | – | – | – | – | – | – | – | – | – | – | – | – | – | – | – |
| C[C@@]12C[C@H](c3ccoc3)OC(=O)[C@@H]1CC[C@]1(C)[C@H]2[C@@H]2OC(=O)[C@@]1(O)[C@H]1O[C@@H]21 [CHASMANTHIN] | – | 15.39% | 18.46% | 22.41% | 23.99% | 31.6% | 32.49% | 13.15% | 18.75% | 21.76% | 21.23% | 23.73% | 20.71% | – | – | – | – | – | – |
| C[C@@]12CC=C3C(=O)O[C@@H](c4ccoc4)C[C@@]3(C)[C@@H]1CC=CC2=O [FIBARURETIN D] | – | 19.44% | 24.17% | 25.18% | 21.55% | 20.67% | 20.5% | 17% | 20.91% | 22.79% | 21.47% | 23.67% | 23.41% | – | – | – | – | – | – |
| C[C@@]12C[C@H](c3ccoc3)OC(=O)C1=CC[C@]1(C)[C@H]2[C@H]2C=C[C@]1(O[C@@H]1O[C@H](CO)[C@@H](O)[C@H](O)[C@H]1O)C(=O)O2 [FIBLEUCINOSIDE] | – | 15.64% | 18.8% | 24.26% | 22.82% | 24.01% | 23.88% | 14.91% | 19.05% | 19.82% | 21.31% | 22.01% | 20.11% | – | – | – | – | – | – |
| C[C@@]12C[C@H](c3ccoc3)OC(=O)C1=CC[C@]1(C)[C@H]2[C@H]2C=C[C@]1(O)C(=O)O2 [FIBLEUCIN] | – | 11.8% | 13.12% | 17.97% | 21.61% | 25.29% | 25.6% | 14.56% | 17.79% | 20.68% | 24.44% | 26.19% | 26.02% | – | – | – | – | – | – |
| C[C@@]12C[C@@H](c3ccoc3)OC(=O)[C@H]1CC[C@@H]1[C@H]2C[C@@H]2OC(=O)[C@@]1(O)[C@@H]2O [FIBRAURETIN B] | – | 14% | 20.1% | 24.03% | 23.43% | 26.73% | 28.34% | 11.45% | 19.17% | 16.73% | 15.21% | 17.69% | 18.16% | – | – | – | – | – | – |
| C[C@@]12C[C@H](c3ccoc3)OC(=O)C1=CC[C@]1(C)[C@H]2[C@@H]2OC(=O)[C@@]1(O[C@@H]1O[C@H](CO)[C@@H](O)[C@H](O)[C@H]1O)[C@H]1O[C@@H]21 [FIBRAURINOSIDE] | Dose-dependent effect | 17.12% | 18.18% | 18.99% | 20.36% | 20.89% | 18.48% | 18.67% | 23.03% | 25.07% | 25.03% | 25.25% | 24.8% | – | – | – | – | – | – |
| C[C@@]12C[C@H](c3ccoc3)OC(=O)C1=CC[C@]1(C)[C@H]2[C@@H]2OC(=O)[C@@]1(O)[C@H]1O[C@@H]21 [FIBRAURIN] | Dose-dependent effect | 19.68% | 27.17% | 28.66% | 30.5% | 32.19% | 33.57% | 10.1% | 12.44% | 14% | 10.85% | 11.41% | 10.61% | – | – | – | – | – | – |
| COC(=O)C1=CCC[C@H]2[C@]3(C)C[C@@H](c4ccoc4)OC(=O)[C@H]3CC[C@@]12C [FLORIBUNDIC ESTER] | – | 16.27% | 20.95% | 21.51% | 21.84% | 21.85% | 20.18% | 13.07% | 15.46% | 16.78% | 13.95% | 14.9% | 13.07% | – | – | – | – | – | – |
| COc1ccc2c(c1)c(CC(=O)O)c(C)n2C(=O)c1ccc(Cl)cc1 [INDOMETHACIN] | – | – | – | – | – | – | – | – | – | – | – | – | – | 20.77% | 21.48% | 19.53% | 18.52% | 17.04% | 16.3% |
